Laboratory results published in PubChem BioAssay (NCI).
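Results reflect a 48-hour exposure of cells in 96-well plates to compound at five concentrations. GI50 is the concentration that inhibits growth by half. TGI denotes the concentration required for complete inhibition of growth.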

Tests used:
Assay in all cases: inhibition of tumour cell growth, NCI panel, 48 h; in the data active = GI50 below about 0.43 µM; inactive = the rest
[1] = system: 786-0 renal
[2] = system: A498 renal
[3] = system: A549 NSCLC
[4] = system: ACHN renal
[5] = system: BT-549 breast
[6] = system: CAKI-1 renal
[7] = system: CCRF-CEM leukemia
[8] = system: COLO 205 colon
[9] = system: DU-145 prostate
[10] = system: EKVX NSCLC
[11] = system: HCC-2998 colon
[12] = system: HCT-116 colon
[13] = system: HCT-15 colon
[14] = system: HL-60(TB) leukemia
[15] = system: HOP-62 NSCLC
[16] = system: HOP-92 NSCLC
[17] = system: HS 578T breast
[18] = system: HT29 colon
[19] = system: IGROV1 ovarian
[20] = system: K-562 leukemia
[21] = system: KM12 colon
[22] = system: LOX IMVI melanoma
[23] = system: M14 melanoma
[24] = system: MALME-3M melanoma

Nc1nc(-c2cccc([N+](=O)[O-])c2)c(N=Nc2ccccc2[N+](=O)[O-])s1
2.98 µM: TGI [6]
3.63 µM: TGI [16]
> 100 µM: TGI [3] | TGI [7] | TGI [8] | TGI [9] | TGI [10] | TGI [11] | TGI [13] | TGI [14] | TGI [18] | TGI [20] | TGI [21]
6 µM: TGI [22]
active: GI50 [16] 0.285 µM
32.7 µM: TGI [5]
9.04 µM: TGI [17]
6.33 µM: TGI [15]
5.84 µM: TGI [19]
30.5 µM: TGI [2]
5.73 µM: TGI [12]
2.75 µM: TGI [4]
8.6 µM: TGI [24]
61.3 µM: TGI [23]
3.01 µM: TGI [1]
inactive: GI50 [1] 1.54 µM | GI50 [2] 7.62 µM | GI50 [3] 20.7 µM | GI50 [4] 1.27 µM | GI50 [5] 4.66 µM | GI50 [6] 1.43 µM | GI50 [7] 3.42 µM | GI50 [8] 42.8 µM | GI50 [9] 4.79 µM | GI50 [10] 6.05 µM | GI50 [11] 53.5 µM | GI50 [12] 1.51 µM | GI50 [13] 2.35 µM | GI50 [14] 48.7 µM | GI50 [15] 2.04 µM | GI50 [17] 2.55 µM | GI50 [18] 59 µM | GI50 [19] 2.32 µM | GI50 [20] 5.57 µM | GI50 [21] 5.39 µM | GI50 [22] 1.83 µM | GI50 [23] 4.84 µM | GI50 [24] 2.9 µM
